Measured values reported in publication PMC3830930 (Clinical pharmacology and therapeutics, 2011).
Read-outs that look alike come from different tables or passages of the source. Marks after values point to notes of the source that are not given here.

Experiments:
[1] = cited from earlier work
[2] = system: UDP-glucuronosyltransferases (UGTs) in pooled HLMs; experiment: Glucuronidation of hydroxymidazolams in HLMs; format: in vitro ADME, human
plasma protein = conditions: cited from earlier work
[3] = target: recombinant CYP3A4 (rCYP3A4) (Homo sapiens, UniProt P08684)
recombinant CYP3A4 (rCYP3A4), sequence (P08684 2-503 limits assumed): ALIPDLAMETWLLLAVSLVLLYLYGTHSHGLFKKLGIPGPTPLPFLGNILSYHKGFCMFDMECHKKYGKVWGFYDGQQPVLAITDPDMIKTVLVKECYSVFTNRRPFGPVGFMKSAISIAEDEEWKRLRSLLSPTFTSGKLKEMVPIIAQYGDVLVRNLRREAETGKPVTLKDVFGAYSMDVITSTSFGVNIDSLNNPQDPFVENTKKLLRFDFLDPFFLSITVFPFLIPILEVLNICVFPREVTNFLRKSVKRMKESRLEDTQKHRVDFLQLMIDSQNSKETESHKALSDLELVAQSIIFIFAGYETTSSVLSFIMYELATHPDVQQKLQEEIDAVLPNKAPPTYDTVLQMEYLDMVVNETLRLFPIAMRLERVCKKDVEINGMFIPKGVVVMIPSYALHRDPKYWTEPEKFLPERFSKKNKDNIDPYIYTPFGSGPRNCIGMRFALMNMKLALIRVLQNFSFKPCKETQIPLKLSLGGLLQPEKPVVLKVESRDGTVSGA

CYP3A4/5 [4] = experiment: clinical; conditions: human, in vivo
CYP3A4/5 [5] = conditions: for AUC1’-OH/AUC4-OH ratio: range over the three CYP3A5 genotype groups

## OC(Cn1cncn1)(Cn1cncn1)c1ccc(F)cc1F [fluconazole]
[1]
  elimination t1/2: ~ 32 hrs
[2]; pooled HLMs, substrate 1 µM, even at 300 µM fluconazole
  effect on the glucuronidation of either hydroxymidazolam metabolite: no effect
Plasma protein
  plasma protein binding: 11–12%
[3]; human, pH 7.4
  IC50 for 1’-OH-MDZ lower than that for 4-OH-MDZ: 50%

## Cc1ncc2n1-c1ccc(Cl)cc1C(c1ccccc1F)=NC2O (centres unmarked) [4-hydroxymidazolam]
CYP3A4/5 [4]; iv, 1 mg, AUC4-OH
  AUC: 0.0022 ± 0.0006 µM·h
CYP3A4/5 [5]; human, in vivo
  percent of extrapolated AUC: 19.0 ± 8.3%

## Cc1ncc2n1-c1ccc(Cl)cc1C(c1ccccc1F)=NC2 [midazolam, reference compound]
CYP3A4/5 [4]; AUCMDZ
  AUC: 0.227 µM·h
CYP3A4/5 [4]; iv, 1 mg, AUCMDZ
  AUC: 0.16 ± 0.035 µM·h
CYP3A4/5 [5]; human, in vivo
  percent of extrapolated AUC: 13.0 ± 9.5%

## hecogenin
[2]
  effect on glucuronide formation from 1’-OH-MDZ or 4-OH-MDZ: decreased glucuronide formation significantly

## OCc1ncc2n1-c1ccc(Cl)cc1C(c1ccccc1F)=NC2 [1’-hydroxymidazolam]
CYP3A4/5 [5]; control state
  AUC1’-OH/AUC4-OH ratio: 6.3–9.6
CYP3A4/5 [5]; extrapolation to infinity, mean ± S.D.
  percent of extrapolated AUC: 18.4 ± 10.6%
CYP3A4/5 [5]; with fluconazole
  AUC1’-OH/AUC4-OH ratio: 2.9–4.9
[3]
  Ki of 1’-OH-MDZ formation (substrate inhibition): 1480 ± 615 ^a µM
